The text below walks through data of patent US7078499B2, “Nucleotide analogues comprising a reporter moiety and a polymerase enzyme blocking moiety” (GE Healthcare UK Limited, priority 2000, dated 2006).

Holding throughout (format): biochemical
Parameters in all cases: key to result of incorporation (termination / further chain extension): T: Incorporation results in termination; E: Incorporation permits further chain extension; T/E: Predominant product is primer extended by one base, but evidence of some further extension also observed

In assay [1] the test system is Thermosequenase E. Kind of assay: Thermostable DNA polymerase primer extension, TSE. The settings on record: DNA template, 45° C. for 20–40 minutes; for primer extended by at least one base within assay time (grade): TTP replaced entirely by test compound. The method, then: (§1) DNA polymerase assays were performed using Sequence 1 as primer and Sequence 2 as template. • Sequence 1 5′[Cy3]TAACTCATTAACAGGATC 3′ • Sequence 2 5′AT TCGCGGTATTCTGGTATGAAGCTTTTAGATCCTGTTAATGAGTTA GTA3′
(§2) The template (Sequence 2) was designed such that the base (underlined) immediately adjacent to the 3′ end of the hybridised primer is complementary to the nucleotide test compound. Nucleotide test compounds were compounds (6) (4′-C-(glycylaminomethyl)thymidine triphosphate), (8) (4′-C-(N-trifluoroacetyaminomethyl)thymidine triphosphate) and (9) (4′-C-(aminomethyl)thymidine triphosphate) as described above.
(§3) Primer extension reactions were performed using the above primers in the presence of 40 to 80 μM of nucleotide triphosphates. Positive control reactions contained all four native nucleotide triphosphates. For the other reactions the TTP was replaced with either a 2:1 ratio of […] for the terminator control, or entirely by the test compound The enzymes were used at a final concentration of 0.175 units/μl and a magnesium ion concentration of 2.5 mM in buffers supplied by the manufacturer. The primer and template concentrations were 0.5 pmol/μl and 2 pmol/μl respectively.
Extension reactions with thermophilic enzymes were performed by initially denaturing the fully assembled reactions at 70° C. for 5 min. followed by 45° C. for 20–40 minutes. The following enzymes were used: Taq DNA polymerase (Taq); Thermosequenase (TS); Thermosequenase II (TSII); Thermosequenase E (TSE), Tfl DNA polymerase (Tfl); Tth DNA polymerase (Tth), deltaTts DNA polymerase (deltaTts), deltaTts D DNA polymerase (dettaTTSD) (all from APBiotech); Pfu DNA polymerase (Pfu) (Stratagene Ltd); Vent™ DNA polymerase (Vent) (New England Biolabs).
(§4) The reactions were stopped by adding a 0.5 volume aliquot of 80% formamide containing 0.1% (w/v) bromophenol blue and 0.1% (w/v) cresol blue. The reaction products were separated by denaturing gel electrophoresis at a constant power of 45 W on 16% polyacrylamide gels containing 50% urea.
(§5) Gels were scanned for Cy3 fluorescence on a Molecular Dynamics Fluorimager and the data analysed using Molecular Dynamics ImageQuant 5 software.
(§6) The incorporation of a test nucleotide triphosphate results in the appearance on a polyacrylamide gel of a single band corresponding to a single base extension product. If, however, the enzyme adds additional bases then further bands would be observed that corresponded to either the full-length product or positions of other complementary bases in the template.

Assay [2] addresses T1, T7 DNA polymerase (Escherichia phage T7, UniProt P00581).
T1 construct: purchased AP Biotech
Kind of assay: Mesophilic DNA polymerase primer extension, T7. The settings on record: DNA template, 37° C. for 20–40 minutes; for primer extended by at least one base within assay time (grade): TTP replaced entirely by test compound. As for the experimental part:
as §1, §2, §3
(§7) Extension reactions preformed with mesophilic polymerases were carried out by mixing all the components of the reaction except the enzyme and heating to 70° C. for 5 min. After the reactions had cooled to room temperature 0.175 units of the enzyme were added and the reactions heated to 37° C. for 20–40 minutes. The following enzymes were used: T7 DNA polymerase (T7); Sequenase 2™ (Seq); Klenow fragment of DNA polymerase 1 (Klen); phi-29 DNA polymerase (Phi-29); T4 DNA polymerase (T4) (all from AP Biotech) and Bst DNA polymerase (Bst) (Cambio Ltd).
as §4, §5, §6

Assay [3] concerns the target T2, T4 DNA polymerase (Enterobacteria phage T4, UniProt P04415).
T2 construct: purchased AP Biotech
T2 sequence (P04415 1-898): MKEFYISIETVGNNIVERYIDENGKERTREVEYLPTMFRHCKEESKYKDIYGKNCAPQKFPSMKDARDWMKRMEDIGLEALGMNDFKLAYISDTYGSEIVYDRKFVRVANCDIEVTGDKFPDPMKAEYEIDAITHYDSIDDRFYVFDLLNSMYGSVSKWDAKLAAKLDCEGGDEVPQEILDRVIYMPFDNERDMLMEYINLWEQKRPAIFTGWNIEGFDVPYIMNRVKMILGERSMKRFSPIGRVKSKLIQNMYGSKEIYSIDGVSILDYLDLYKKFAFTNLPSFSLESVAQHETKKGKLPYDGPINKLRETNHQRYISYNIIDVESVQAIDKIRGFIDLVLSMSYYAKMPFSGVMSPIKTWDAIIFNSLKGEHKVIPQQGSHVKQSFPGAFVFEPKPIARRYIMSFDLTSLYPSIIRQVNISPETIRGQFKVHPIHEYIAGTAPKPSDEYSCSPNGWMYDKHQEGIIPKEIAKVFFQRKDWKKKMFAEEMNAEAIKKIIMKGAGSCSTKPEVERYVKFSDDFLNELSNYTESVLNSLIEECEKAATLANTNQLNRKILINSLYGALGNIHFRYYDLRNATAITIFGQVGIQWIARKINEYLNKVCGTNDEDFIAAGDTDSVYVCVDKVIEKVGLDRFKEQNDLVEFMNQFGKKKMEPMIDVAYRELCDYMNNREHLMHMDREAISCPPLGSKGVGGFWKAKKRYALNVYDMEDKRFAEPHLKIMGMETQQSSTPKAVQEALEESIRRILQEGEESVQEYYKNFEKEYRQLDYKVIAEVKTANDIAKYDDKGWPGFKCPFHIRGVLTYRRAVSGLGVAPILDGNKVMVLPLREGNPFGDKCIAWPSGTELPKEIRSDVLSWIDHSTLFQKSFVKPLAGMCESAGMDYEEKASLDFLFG
Briefly: Mesophilic DNA polymerase primer extension, T4. The settings on record: DNA template, 37° C. for 20–40 minutes; for primer extended by at least one base within assay time (grade): TTP replaced entirely by test compound. The method, then:
as §1, §2, §3, §7, §4, §5, §6

T1 sequence (P0AA25 2-109): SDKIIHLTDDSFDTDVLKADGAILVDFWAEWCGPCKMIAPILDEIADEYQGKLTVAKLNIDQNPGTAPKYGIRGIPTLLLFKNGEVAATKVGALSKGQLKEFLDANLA
T1 sequence (P00581 whole entry): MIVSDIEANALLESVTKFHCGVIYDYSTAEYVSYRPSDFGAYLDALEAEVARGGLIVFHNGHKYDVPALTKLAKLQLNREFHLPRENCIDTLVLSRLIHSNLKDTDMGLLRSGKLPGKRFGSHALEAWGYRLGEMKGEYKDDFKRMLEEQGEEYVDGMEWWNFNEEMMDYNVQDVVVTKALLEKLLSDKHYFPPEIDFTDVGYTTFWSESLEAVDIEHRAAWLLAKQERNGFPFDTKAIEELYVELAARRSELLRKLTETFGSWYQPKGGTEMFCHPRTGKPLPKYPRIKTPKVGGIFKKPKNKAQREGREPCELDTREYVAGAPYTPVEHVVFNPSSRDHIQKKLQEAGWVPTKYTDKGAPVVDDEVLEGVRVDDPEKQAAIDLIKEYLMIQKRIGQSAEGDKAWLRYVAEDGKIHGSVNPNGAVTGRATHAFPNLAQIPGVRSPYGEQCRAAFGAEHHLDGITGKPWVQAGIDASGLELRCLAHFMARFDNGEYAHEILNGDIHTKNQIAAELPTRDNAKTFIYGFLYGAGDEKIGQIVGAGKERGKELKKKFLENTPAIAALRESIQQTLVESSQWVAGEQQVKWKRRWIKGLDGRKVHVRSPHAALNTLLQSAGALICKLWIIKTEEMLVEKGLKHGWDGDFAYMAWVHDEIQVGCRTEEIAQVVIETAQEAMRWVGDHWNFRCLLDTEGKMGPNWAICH

Regarding “4′-C-(Aminomethyl)thymidine triphosphate [compound (9)]”, the “result of incorporation (termination / further chain extension)” value in assay [1] was “T”; in assay [2], “T/E”; in assay [3] it was “T”. For the same compound, the figures for the “primer extended by at least one base within assay time (grade)” value (“primer extended” below) in assay [1], in assay [2] and in assay [3] were “++ (up to 75% of primer extended by at least one base within assay time)”, “+/− (up to 25% of primer extended by at least one base within assay time)” and “+ (up to 50% of primer extended by at least one base within assay time)”, respectively.

With “4′-C-(Glycylaminomethyl)thymidine triphosphate [compound (6)]”, the figures for the “result of incorporation (termination / further chain extension)” value in assay [1], in assay [2] and in assay [3] were “T”, “T/E” and “T”, respectively. Further, the “primer extended” value in assay [1] is reported as “++ (up to 75% of primer extended by at least one base within assay time)”; in assay [2], “+/− (up to 25% of primer extended by at least one base within assay time)”; in assay [3], “+ (up to 50% of primer extended by at least one base within assay time)”.

Regarding `Cc1cn([C@H]2C[C@H](O)[C@@](CNC(=O)C(F)(F)F)(COP(=O)(O)OP(=O)(O)OP(=O)(O)O)O2)c(=O)[nH]c1=O` [compound (8), 4′-C-(N-trifluoroacetylaminomethyl)thymidine triphosphate], the results for the “result of incorporation (termination / further chain extension)” value in assay [1], in assay [2] and in assay [3] were “T”, “T/E” and “T”, respectively. The “primer extended” value in assay [1] is on record as “++ (up to 75% of primer extended by at least one base within assay time)”; in assay [2], “+/− (up to 25% of primer extended by at least one base within assay time)”; in assay [3] it was “+ (up to 50% of primer extended by at least one base within assay time)”.
